Laboratory results: patent US20080214563A1, “Benzimidazole Thiophene Compounds As Plk Modulators” (priority 2005, published 2008)
pIC50: −log10 of the molar value.

Tests used:
[1] = system: HCT116; experiment: Methylene Blue Cell Growth Inhibition Assay, HCT116; assay type: cell-based; settings: Homo sapiens, HCT-116, 72 h, read-out: MEB HCT116 IC50
Experimental: (§1) Normal human foreskin fibroblasts (HFF), human colon (HCT116, RKO), lung (H460, A549) and breast (MCF7) tumor cell lines were cultured in high glucose DMEM (Life Technologies) containing 10% fetal bovine serum (FBS) at 37° C. in a humidified 5% CO2, 95% air incubator. Cells were harvested using trypsin/EDTA, counted using a haemocytometer, and plated in 100 μL of culture media per well, at the following densities, in a 96-well tissue culture plate (Falcon 3075): HFF 5,000 cells/well, HCT116 3,000 cells/well, RKO 2,500 cells/well, H460 2,500 cells/well, A549 5,000 cells/well, MCF7 4,000 cells/well. The next day, compounds were diluted in low glucose DMEM containing 100 μg/mL gentamicin, at twice the final required concentration, from 10 mM stock solutions in DMSO. 100 μL/well of these dilutions were added to the 100 μL of media currently in the assay plates. Medium containing 0.6% DMSO was added to control wells. The final concentration of DMSO in all wells was 0.3%. Cells were incubated at 37° C., 5% CO2 for 72 h. Medium was removed by aspiration. Cell biomass was estimated by staining cells with 80 μL per well methylene blue (Sigma M9140, 0.5% in 50:50 ethanol:water), and incubation at room temperature for 30-60 min. Stain was removed by aspiration and the plates rinsed by immersion in water, then air-dried. To release stain from the cells, 100 μL of solubilization solution was added (1% N-lauroyl sarcosine, Sodium salt, Sigma L5125, in PBS), and plates were shaken gently for about 30 min. Optical density at 620 nm was measured on a microplate reader. Percent inhibition of cell growth was calculated relative to vehicle treated control wells. Concentration of compound that inhibits 50% of cell growth (IC50) was interpolated using nonlinear regression (Levenberg-Marquardt) and the equation, y=Vmax*(1−(x/(K+x)))+Y2, where “K” was equal to the IC50.

[2] = system: H460; experiment: Methylene Blue Cell Growth Inhibition Assay, H460; assay type: cell-based; settings: Homo sapiens, NCI-H460, 72 h, read-out: MEB H460 IC50
Experimental: as §1

[3] = system: A549; experiment: Methylene Blue Cell Growth Inhibition Assay, A549; assay type: cell-based; settings: Homo sapiens, 72 h, read-out: MEB A549 IC50
Experimental: as §1

[4] = system: RKO; experiment: Methylene Blue Cell Growth Inhibition Assay, RKO; assay type: cell-based; settings: Homo sapiens, 72 h, read-out: MEB RKO IC50
Experimental: as §1

[5] = system: MX-1; experiment: Methylene Blue Cell Growth Inhibition Assay, MX-1; assay type: cell-based; settings: Homo sapiens, MX1, 72 h, read-out: MEB MX-1 IC50
[6] = system: Normal human foreskin fibroblasts (HFF); experiment: Methylene Blue Cell Growth Inhibition Assay, HFF; assay type: cell-based; settings: Fibroblast, 72 h, read-out: MEB HFF IC50
Experimental: as §1

[7] = system: HCT-116; experiment: Cell-Titer Glo Cell Growth Inhibition Assay, HCT116; assay type: cell-based; settings: Homo sapiens, CellTiter-Glo, 72 h, read-out: CTG HCT116 IC50
Experimental: A549-L (human lung), BT474 (human breast), Colo 205 (human colon), H1299 (human lung), Hela (human cervix), HCT-116 (human colon), HN5 (human head and neck), HT29 (human colon), LNCap (human prostate), MCF7 (human breast), MDA-MB468 (human breast), MX-1 (human breast), RPMI 8226 (human peripheral blood), SKOV3 (human ovary) and P388 (murine leukemia) cell lines were cultured in RPMI1640 containing 10% fetal bovine serum at 37° C. in a 5% CO2 incubator. Cell lines were split into T75 flasks (Falcon #353136) two to three days prior to assay set up at density which yields approximately 70-80% confluency at time of harvest for assay. Cells were harvested using 0.25% trypsin with EDTA (Glibco/Invitrogen #25200-056), Cell counts were performed on cell suspensions using Trypan Blue exclusion staining, cells were then plated in 105 uL of culture media per well at the following densities in 96 well Costar #3916 black flat bottom plates: All human cell lines were plated at 500 cells/well. P388 were plated at 250 cells/well. All plates were placed at 5% CO2 37° C. overnight and then test compounds were added the following day. One plate of each cell type is treated with CellTiter-Glo (Promega #G7573) for a day 0 proliferation measurement and read as described below. The test compounds are prepared in clear U bottom polypropylene 96 well plates (Falcon #35-1190 with consecutive two fold dilutions. 9 uL of these dilutions was added into each well of the cell plates. The final concentration of DMSO in all wells is 0.15%. Cells were incubated at 37° C., 5% CO2 for 72 h. Following 72 h of incubation with compounds each plate was developed and read. CellTiter-Glo reagent was added to assay plates using a volume equivalent to the cell culture volume in the wells. Plates were shaken for approximately two minutes and incubated at room temperature for approximately 15 min and the chemiluminescent signal is read on the Victor V or Envison 2100 reader. […] Concentration of compound that inhibited 50% of cell growth (IC50) was analysis by 4 or 6 parameter fit of data using XLfit, value of no cell addition was subtracted from all samples for background.

[8] = Intravenous pharmacokinetics in CD-1 mouse; assay type: in vivo; settings: plasma, iv bolus, male CD-1 mouse, dose 1.9-7.4 mg/kg per compound (Table 3)
Experimental: Preliminary investigation of the intravenous pharmacokinetics of compounds of invention were carried out in fed conscious CD-1 mouse. Compounds were formulated as 1-10 mg/kg, 5 mL/kg, 1-2 mg/mL solution (Table 3). Twenty one male mice (n=3 mice per time point) (˜30 g) received dose solution by bolus injection in the tail vein. The formulation for iv were either 20% beta cyclodextrin in saline pH 3.5-6 or PEG400:ethanol:saline (50:15:35 v/v). Blood samples (˜0.4 mL) were collected terminally by cardiac puncture following anesthetization in a CO2 chamber at 2, 15, 30, 60 min, 2, 4, and 6 h following iv administration. Blood samples were collected into tubes containing heparin and placed on crushed ice promptly after collection. Plasma was collected by centrifugation, frozen and stored at about −80° C. prior to analysis. Blood or plasma concentrations were determined by LC/MS/MS equipped with an electrospray ion source and using calibration curves for the appropriate matrix. The lower level of quantitation (LLQ) was 10 ng/mL. Blood or plasma concentration-time data were analyzed by non-compartmental methods using the computer program WinNonlin Professional (version 4.1). Area under the blood or plasma concentration-time curve (AUC) was calculated using the linear trapezoidal rule for each incremental trapezoid up to Cmax, and the log trapezoidal rule for each trapezoid thereafter. The terminal elimination rate constant (λz) was derived from the log-linear disposition phase of the concentration-time curve using least-squares regression analysis with visual inspection of the data to determine the appropriate number of terminal data points for regression analysis.
Following iv administration, the total body clearance (CL) was estimated. CL was calculated by dividing the dose by AUC(0−t). The clearance values were assigned as follows. Low <30 mL/min/kg, moderate 30-70 mL/min/kg, high >70 mL/min/kg. The assignment was based on hepatic blood flow i.e. hepatic blood flow of 0-30% low, 30-70% moderate and 70-100% high. The hepatic blood flow in mouse is ˜100 mL/min/kg.

[9] = system: MCF7; experiment: Methylene Blue Cell Growth Inhibition Assay, MCF7; assay type: cell-based; settings: Homo sapiens, 72 h, read-out: MEB MCF7 IC50
Experimental: as §1

[10] = molecular target: T1, PLK1 kinase domain (Homo sapiens, UniProt P53350); experiment: Assay for Inhibition of PLK1 (33P SPA kinase assay); assay type: biochemical; settings: 2 nM PLK1 kinase domain, 1 μM ATP; read-out: PLK1 pIC50 (converted)
T1 construct: made in house; host or cells: baculovirus infected T. ni cells
Experimental: All procedures were performed at 4° C. Cells were lysed in 50 mM HEPES, 200 mM NaCl, 50 mM imidazole, 5% glycerol; pH 7.5. The homogenate was centrifuged at 14K rpm in a SLA-1500 rotor for 1 h and the supernatant filtered through a 1.2 micron filter. The supernatant was loaded onto a Nickel chelating Sepharose (Amersham Pharmacia) column and washed with lysis buffer. Protein was eluted using 20%, 30% and 100% buffer B steps where buffer B is 50 mM HEPES, 200 mM NaCl, 300 mM imidazole, 5% glycerol; pH 7.5. Fractions containing PLK were determined by SDS-PAGE. Fractions containing PLK were diluted five-fold with 50 mM HEPES, 1 mM DTT, 5% glycerol; pH 7.5, then loaded on an SP Sepharose (Amersham Pharmacia) column. After washing the column with 50 mM HEPES, 1 mM DTT, 5% glycerol; pH 7.5, PLK was step eluted with 50 mM HEPES, 1 mM DTT, 500 mM NaCl; 5% glycerol; pH 7.5. PLK was concentrated using a 10 kDa molecular weight cutoff membrane and then loaded onto a Superdex 200 gel filtration (Amersham Pharmacia) column equilibrated in 25 mM HEPES, 1 mM DTT, 500 mM NaCl, 5% glycerol; pH 7.5. Fractions containing PLK were determined by SDS-PAGE. PLK was pooled, aliquoted and stored at −80° C. Samples were quality controlled using mass spectrometry, N-terminal sequencing and amino acid analysis.
B. Enzyme activity +/− inhibitors was determined as follows:
All measurements were obtained under conditions where signal production increased linearly with time and enzyme. Test compounds were added to white 384-well assay plates (0.1 μL for 10 μL and some 20 μl assays, 1 μL for some 20 μL assays) at variable known concentrations in 100% DMSO. DMSO (1-5% final, as appropriate) and EDTA (65 mM in reaction) were used as controls.
Reaction Mix (10 or 20 μL) was quickly added to each well immediately following addition of enzyme via automated liquid handlers and incubated 1-1.5 h at 22° C. The 20 μL enzymatic reactions were stopped with 50 μL of stop mix (50 mM EDTA, 4.0 mg/mL Streptavidin SPA beads in Standard Dulbecco's PBS (without Mg^2+ and Ca^2+), 50 μM ATP) per well. The 10 μL reactions were stopped with 10 μL of stop mix (50 mM EDTA, 3.0 mg/mL Streptavidin-coupled SPA Imaging Beads (“LeadSeeker”) in Standard Dulbecco's PBS (without Mg^2+ and Ca^2+), 50 μM ATP) per well. Plates were sealed with clear plastic seals, spun at 500×g for 1 min or settled overnight, and counted in Packard TopCount for 30 seconds/well (regular SPA) or imaged using a Viewlux imager (LeadSeeker SPA). Signal above background (EDTA controls) was converted to percent inhibition relative to that obtained in control (DMSO-only) wells.

T1 sequence (P53350 21-346): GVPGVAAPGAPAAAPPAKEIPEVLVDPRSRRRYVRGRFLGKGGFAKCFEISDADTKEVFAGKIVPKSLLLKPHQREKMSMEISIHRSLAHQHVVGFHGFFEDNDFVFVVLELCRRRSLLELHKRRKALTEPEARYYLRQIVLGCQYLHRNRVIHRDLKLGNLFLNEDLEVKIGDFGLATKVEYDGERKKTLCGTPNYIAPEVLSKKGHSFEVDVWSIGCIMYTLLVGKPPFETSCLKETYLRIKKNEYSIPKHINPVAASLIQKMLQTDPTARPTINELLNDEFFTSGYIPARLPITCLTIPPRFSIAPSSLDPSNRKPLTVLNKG

pIC50 [1]	pIC50 [2]	pIC50 [3]	pIC50 [7]	AUC(0-t) [8] [µg·h/mL]	clearance ([8]; read-out: Plasma CL) [L/h/kg]	pIC50 [9]	IC50 [10] [µM]	SMILES	pIC50 [4]	pIC50 [5]	pIC50 [6]
> 7.00	> 7.00	> 7.00	> 7.00	1.37	1.39			C[C@@H](Oc1cc(-n2cnc3cc(-c4cn[nH]c4)ccc32)sc1C(N)=O)c1ccccc1C(F)(F)F [Example 5, 5-[5-(1H-Pyrazol-4-yl)-1H-benzimidazol-1-yl]-3-({(1R)-1-[2-(trifluoromethyl)phenyl]ethyl}oxy)-2-thiophenecarboxamide]	> 7.00	> 7.00	6.00 to 7.00
	> 7.00	> 7.00	6.00 to 7.00			6.00 to 7.00	< 0.01	COc1cc2ncn(-c3cc(OC(C)c4ccccc4C(F)(F)F)c(C(N)=O)s3)c2cc1OC (stereo not drawn) [PU4870 Ex 127, reference compound]	> 7.00		< 6.00
< 6.00	< 6.00	< 6.00	< 6.00			< 6.00	0.01 to 1	COc1cc2c(cc1OCCCN1CCCC1=O)ncn2-c1cc(OCc2ccccc2C(F)(F)F)c(C(N)=O)s1 [PU4870 Ex 134, reference compound]	< 6.00		< 6.00
< 6.00	< 6.00					< 6.00	0.01 to 1	NC(=O)c1sc(-n2cnc3cc(C(=O)NCCN4CCNC4=O)ccc32)cc1OCc1ccccc1C(F)(F)F [PU4870 Ex 156, reference compound]	< 6.00		< 6.00

SMILES	pIC50 [1]	pIC50 [2]	pIC50 [3]	pIC50 [7]	AUC(0-t) [8] [µg·h/mL]	clearance ([8]; read-out: Plasma CL) [L/h/kg]	pIC50 [9]	IC50 [10] [µM]	pIC50 [4]	pIC50 [5]	pIC50 [6]
COc1cc2ncn(-c3cc(OC(C)c4ccccc4Cl)c(C(N)=O)s3)c2cc1OC (stereo not drawn) [PU4870 Ex 126, reference compound]	> 7.00	> 7.00	> 7.00				< 6.00		> 7.00		6.00 to 7.00
